In patent US20150204881A1, “Biomarkers For Diagnosis Of Diabetes And Monitoring Of Anti-Diabetic Therapy” (Sumitomo Bakelite Co., Ltd., priority 2012, published 2015):

Key:
db/db mice [1] = experiment: HbA1c in treated db/db mice; type: in vivo, mouse
db/db mice [2] = experiment: Plasma N-glycan profiling (MALDI-TOF MS) in insulin detemir- vs vehicle-treated db/db mice; type: in vivo, mouse
Method: A 10 μl aliquot of each plasma sample was spiked with internal standard (700 pmol) and analyzed for N-linked glycans using Ezose Sciences' GLYCANMAP methodology. The samples were denatured and then digested with trypsin, followed by heat-inactivation. The mixture was then treated with PNGase F. After enzymatic release of N-glycans, aliquots were subjected to solid-phase processing using BLOTGLYCO beads. Following capture on the beads, the sialic acid residues were methyl esterified. The glycans were simultaneously released from the beads and labeled, and then aliquots of the recovered materials were spotted onto a MALDI target plate. Steps from initial aliquoting to spotting on the MALDI plate were performed using the fully automated SWEETBLOT technology. MALDI-TOF MS analysis was performed on an ultraflex III mass spectrometer (Bruker Daltonics) in the positive-ion, reflector mode. Each sample from the BLOTGLYCO bead processing step was spotted in quadruplicate, and spectra were obtained in an automated manner using the AutoXecute feature in flexControl software (Bruker Daltonics). Proposed glycan structures were assigned based on molecular weight. These methods have been described previously by Nishimura, Furukawa and Miura (Nishimura et al., Angew Chem. Int. Ed. Engl., 44: 91-96 (2004); Furukawa et al., Anal. Chem., 80: 1094-1101 (2008); Miura et al., Chem.-A Eur. J, 13: 4797-4804 (2007)). Alternatively, standard fluorescent HPLC or capillary electrophoresis methods with 2-AA, 2-AB, or APTS labeling can be used to monitor the glycan levels and changes in glycan patterns.
A further study was undertaken to evaluate the performance of candidate biomarkers discovered using rosiglitazone in mice treated with a diabetes drug having a different mechanism of action. The candidate biomarkers that were identified in Example 1 were evaluated in db/db mice treated with insulin detemir and vehicle.
Plasma samples were analyzed from ten db/db mice at baseline (0 days) and from 20 db/db mice (ten vehicle and ten insulin detemir-treated) at 7, 14, and 21 days. Sample preparation and analysis followed the protocol described in Example 1.
Concentrations of individual glycans in insulin detemir- and vehicle-treated db/db mice were compared at each time-point using the Student's t-test. N-glycans which yielded p-values <0.05 in this analysis were considered significant. Time-dependence was also evaluated for each of the candidate biomarkers by comparing each time-point to baseline.

[3] = db/db mice treated with insulin detemir vs vehicle
[4] = plasma, db/db mice vs vehicle, 7, 14, 21 days

CN(CCOc1ccc(CC2SC(=O)NC2=O)cc1)c1ccccn1 (centres unmarked) [Rosiglitazone]
Time until HbA1c difference reached p<0.001 significance (db/db mice [1]; first rosiglitazone study, db/db mice vs vehicle): 21 days

insulin detemir
Changes in HbA1c (db/db mice [1]; insulin-treated db/db mice, compared with rosiglitazone): more subtle changes | Changes in Glycan 540020 (db/db mice [2]; [3]): no significant changes | Changes in O-acetylated N-glycans (db/db mice [2]; [3]): no significant changes | Changes in fucosylated N-glycans (db/db mice [2]; [3]): no significant changes | High mannose glycans (520000, 620000, 720000, 820000) with insulin detemir treatment (db/db mice [2]; db/db mice vs vehicle, significant at Day 7, 14 and 21, lower in magnitude than with rosiglitazone): lower levels | Hybrid glycans (430010, 530010, 630010) vs vehicle-treated controls (db/db mice [2]; db/db mice, as early as Day 7): significant decreases | Direction of Change with Insulin Detemir: High Mannose glycan 520000 (db/db mice [2]; [4]): Decreased | Direction of Change with Insulin Detemir: High Mannose glycan 620000 (db/db mice [2]; [4]): Decreased | Direction of Change with Insulin Detemir: High Mannose glycan 720000 (db/db mice [2]; [4]): Decreased | Direction of Change with Insulin Detemir: High Mannose glycan 820000 (db/db mice [2]; [4]): Decreased | Direction of Change with Insulin Detemir: Hybrid glycan 430010 (db/db mice [2]; [4]): Decreased | Direction of Change with Insulin Detemir: Hybrid glycan 530010 (db/db mice [2]; [4]): Decreased | Direction of Change with Insulin Detemir: Hybrid glycan 630010 (db/db mice [2]; [4]): Decreased
